Consider 2 substances from EP0497921B1, “METHOD FOR INHIBITING ENZYMATIC SYNTHESIS OF NUCLEIC ACIDS USING ISOPSORALENS” (ISAACS, Stephen T., priority 1989, dated 1991).

Marks after values point to notes of the source that are not given here.

Series [1] can be described thus: Solubility of photoreactive compounds in 1 X TE (optical density of filtrate). It counts as physicochemical. The settings on record: 1 x te. The procedure: The solubilities of AMIP, AMDMIP, DMIP, MIP and isopsoralen (IP) were determined experimentally according to the scheme set forth in Figure 5. To perform the solubility measurement, it was first necessary to establish known optical densities for a 1 µg/ml solution of each compound. These were determined by preparing either ethanolic or aqueous stocks of each compound at known concentrations in 1 x TE, then measuring the optical density of each solution. From this information, the absorption of a 1 µg/ml solution was computed. Alternatively, the extinction coefficient may be thus determined and used in the same fashion. In this manner, the following absorption data was collected:
Following this step, undissolved compound was removed by filtration using a 0.2 u nylon-66 syringe filter (Arco LC13; Gelman). The concentration of the remaining soluble compound was then determined by measuring the optical density of the filtrate and computing the solubility from the known optical density of a 1 µg/ml solution of that compound. The solubility of the compounds was thus determined to be as follows: […]

The test system of series [2] is HIV 115-mer. Nature of the series: Post-amplification sterilization: isopsoralen plus irradiation, reamplification of carryover. Particulars: for sterilization sensitivity (molecules of carryover sterilized): 115-mer PCR product; for amplification of carryover, not light-treated: no irradiation. It counts as biochemical. From the text:
For the purposes of this determination, the steps of the following experiment include (see Figure 40): a) preparing template, b) providing template, c) providing PCR reagents, d) providing polymerase, e) mixing PCR reagents, template, and polymerase to initiate PCR, f) cycling to provide PCR product, g) carrying over of PCR product into new tubes, h) providing isopsoralen, i) adding isopsoralen to the carryover, j) irradiating, k) addition of new PCR reagents, and l) subsequent PCR. Steps a), b) , c) , d), e), and f). PCR product was provided as described earlier. Step g) carrying over of PCR product. Aliquots of PCR product were added into new reaction tubes at 10^6 copies per tube. Step h) Providing Isopsoralen. AMDMIP was synthesized as described and diluted. Step i) Addition of Isopsoralen. AMDMIP (100 µg/ml, approximately 10^-4 M) was added reaction vessels containing carryover. Step j) Irradiation. Irradiation was performed on the PTI device to avoid photoproduct. Three of the new reaction tubes were irradiated while the others were left unirradiated as controls. Irradiation was for 15 minutes at RT as above. Step k) PCR Reagents and Taq Polymerase Were Added to Appropriate Concentrations. The final volume was increased two fold such that AMDMIP photoproducts were at 50 µg/ml. Step l) Subsequent PCR. Amplification was performed in closed reaction vessels using primer pair SK-38/39 for 20, 25 or 30 cycles, using the temperature profile for cycling described above in the presence of α-^32P-dCTP.
For the purposes of this determination, the steps of the following experiment include (see Figure 42): a) preparing template, b) providing template, c) providing isopsoralen, d) providing PCR reagents, e) providing polymerase, f) mixing isopsoralen, PCR reagents, template, and polymerase to initiate PCR, g) cycling to provide PCR product, h) irradiating, i) carrying over of PCR product into new tubes at specific copy numbers, and j) amplifying in a subsequent PCR. Step a): Template preparation. HIV 115-mer was used as template. Step b) Providing Template. For the reaction, template (equivalent to approximately 10^7 copies) in buffer was provided for the reaction vessel. Step c) Providing Isopsoralen. AMDMIP (400 µg/ml) was provided as the isopsoralen. This is a higher concentration of AMDMIP than used in the previous example. Steps d), e), f) and g). PCR reagents and polymerase were provided, mixed and cycled as described above. This time, however, isopsoralen is part of the pre-amplification mixture. Step h) Irradiation. Irradiation was performed on the CE-III device for 15 minutes at 25°C. Step i) Carrying over of PCR product. Aliquots of PCR product were added into six new reaction tubes - two tubes for each dilution. Dilutions to yield 10^7, 10^5 and 10^3 copies were made. (Note that the dilutions were made from a concentration of approximately […]; thus, the dilutions produce a concentration of photoproduct that is far too low to consider photoproduct sterilization.) Step j) Subsequent PCR. New PCR reagents and polymerase were provided and mixed. Amplification was performed in closed reaction vessels using primer pair SK-38/39 for 30 cycles, using the temperature profile for cycling described above in the presence of α-^32P-dCTP.
The two PCR targets used in these experiments were a 115-mer (SK-38/SK-39 HIV system) and a 500-mer. The 500-mer target is obtained from a PCR amplification of a lambda plasmid with primers PCR 01/02. This system is provided by Cetus/Perkin Elmer as a control in their commercial kits of PCR reagents (Catalogue No. N801-0055). For both of these systems equivalent copy numbers of each target were prepared in the following manner: An initial 30 cycle PCR reaction was carried out for each system with the appropriate primers and targets. Aliquots (approximately 10^5-10^6 target copies) of each of these reactions were transferred to a second set of PCR reactions. […]

[3] abbreviates: 100 µg/ml, CE-III 15 minutes, 30 cycles.
Setting [4] is: 400 µg/ml, CE-III 15 minutes, 30 cycles.

With “4'-Aminomethyl-4,5'-dimethylisopsoralen [AMDMIP]”, the “Solubility in 1 X TE” value in series [1] is > 22,700 * µg/ml. Moreover, the “sterilization of 115-mer PCR product compared with AMIP” value in series [2] (setting [3]) is given as “better sterilization agent”. The “sterilization sensitivity (molecules of carryover sterilized)” value in series [2] (setting [4]) is reported as ≥ 6 x 10^9 carryover molecules. For the same substance, the sterilization of carryover result in series [2] (AMDMIP 100 µg/ml added after amplification, PTI 15 minutes, 10^6 copies, thirty cycles) is “no significant sterilization is observed”; in series [2] (AMDMIP 100 µg/ml added after amplification, PTI 15 minutes, 10^6 copies, twenty cycles), “sterilization appears to be complete”; in series [2] (AMDMIP 100 µg/ml added after amplification, PTI 15 minutes, 10^6 copies, twenty-five cycles, reduced relative to controls), “PCR product is visible”; in series [2] (AMDMIP 400 µg/ml present during amplification, CE-III 15 minutes at 25°C, 10^7, 10^5, 10^3 copies, 30 cycles), “complete, post-amplification sterilization”. The “amplification of carryover, not light-treated” value in series [2] (AMDMIP 100 µg/ml, 20, 25, 30 cycles) was “show amplification”; in series [2] (AMDMIP 400 µg/ml present during first amplification, 30 cycles), “show amplification”. The “target molecules left capable of being replicated by PCR” value in series [2] (inferred from 20 cycles with 100 CPM threshold and Table 6) is “less than 10^4 target molecules”. Moreover, the “target molecules that retained replicating capabilities” value in series [2] (inferred from 25 cycles and Table 6) is listed as “at least 10^3 target molecules”.

As to 5-Aminomethylisopsoralen [AMIP], in series [1], the “Solubility in 1 X TE” value is 21,000 µg/ml. For the same substance, the “sterilization sensitivity (molecules of carryover sterilized)” value in series [2] (setting [3]) is reported as “about 10,000 molecules of carryover”; in series [2] (setting [4]), “about 10^6 carryover molecules”.
